13 compounds from patent publication US20250228239A1, “MOLECULES HAVING PESTICIDAL UTILITY, AND INTERMEDIATES, COMPOSITIONS, AND PROCESSES, RELATED THERETO” (priority 2024, published 2025) can be followed below.

Each structure is given as a SMILES string. Like-named read-outs stand apart in the source and are kept apart here.

Common to all, as to type: in vivo
In series [1] the test system is Beet Armyworm (Spodoptera exigua, LAPHEG). Put plainly: Bioassays on Beet Armyworm (BAW), 128-well diet tray assay. Particulars: Spodoptera exigua; for mortality at 50 µg/cm2: 168 h, second instar larvae, 50 μg/cm^2 of test molecule on artificial diet, 25° C., five to seven days, average of eight wells, read-out: BAW % Control (or Mortality) rating. In a few lines:
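Mortality of second-instar larvae (1–5/well) on artificial diet treated with 50 μg/cm^2 compound, read after 5–7 days at 25° C.; values are means of eight wells.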

Series [2] relates to Yellow Fever Mosquito (Aedes aegypti, AEDSAE). Particulars: for YFM rating: Yellow Fever Mosquito, Table ABC / ABC-DP rating; for YFM % Control (or Mortality) rating: about 1 day-old larvae, 4000 ppm master solution diluted with 90:10 water/acetone, 15 μL per well plus 220 μL larval mixture, 3 days; for YFM: Table ABC: Biological Results, species YFM. In a few lines:
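Rating-scale grades reflect larval mortality scored per well after 3 days at room temperature under non-evaporative lids. Larvae (~1 day old, hatched overnight in liver-powder water) were added to six daughter plates per compound, prepared from a 4000 ppm DMSO stock diluted in 90:10 water/acetone.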

Series [3] concerns Cabbage Looper (Trichoplusia ni, TRIPNI). Put plainly: Bioassays on Cabbage Looper (CL), 128-well diet tray assay. Particulars: Trichoplusia ni; for mortality at 50 µg/cm2: 168 h, second instar larvae, 50 μg/cm^2 of test molecule on artificial diet, 25° C., five to seven days, average of eight wells, read-out: CL % Control (or Mortality) rating. In a few lines:
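Diet tray, 2nd instar, 1–5 larvae/well; 50 μg/cm^2 compound surface-applied (acetone:water 90:10), dried; 8 wells/treatment; 25° C, 14:10 L:D, 5–7 d; % mortality, mean of 8 wells.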

The mark [4] stands for this setting: Beet Armyworm, Table ABC / ABC-DP rating, read-out: BAW rating.
[5] abbreviates: Cabbage Looper, Table ABC / ABC-DP rating, read-out: CL rating.
[6] abbreviates: Table ABC: Biological Results, species BAW, read-out: BAW.
Setting [7] is: Table ABC: Biological Results, species CL, read-out: CL.

Broadly, the mortality is the percentage killed. As to `Cc1cc(F)ccc1NNC(=O)c1cc(NC(=O)[C@H]2[C@H](c3cc(Cl)cc(Cl)c3)C2(Cl)Cl)ccc1Cl` (relative stereo) [F2562, trans-2,2-Dichloro-N-(4-chloro-3-(2-(4-fluoro-2-methylphenyl)hydrazine-1-carbonyl)phenyl)-3-(3,5-dichlorophenyl)cyclopropane-1-carboxamide], the mortality at 50 µg/cm2 in series [1] and in series [3] was 50 to 100% throughout. In addition, the pest or weed control at 50 µg/cm2 in series [1] (setting [4]) and in series [3] (setting [5]) was 50 to 100% throughout. The YFM rating entry in series [2] is “A (80–100)”. Further, in series [2], the “YFM % Control (or Mortality) rating” value is on record as “A (80–100)”.
Consider `O=C(Nc1ccc(F)cc1F)c1cc(NC(=O)[C@H]2[C@H](c3ccc(F)c(Cl)c3)C2(Cl)Cl)cc(C(F)(F)F)c1Cl` (relative stereo) [F1215, trans-2-Chloro-5-(2,2-dichloro-3-(3-chloro-4-fluorophenyl)cyclopropane-1-carboxamido)-N-(2,4-difluorophenyl)-3-(trifluoromethyl)benzamide], for which the pest or weed control at 50 µg/cm2 in series [1] (setting [6]) and in series [3] (setting [7]) was 50 to 100% each time. Further, the YFM entry in series [2] is on record as “A (80–100)”.
On to `Nc1ccc(F)c(NC(=O)c2cc(NC(=O)[C@H]3[C@H](c4cc(Cl)cc(Cl)c4)C3(Cl)Cl)ccc2Cl)c1F` (relative stereo) [F1026, trans-N-(3-Amino-2,6-difluorophenyl)-2-chloro-5-(2,2-dichloro-3-(3,5-dichlorophenyl)cyclopropane-1-carboxamido)benzamide], for which the pest or weed control at 50 µg/cm2 in series [1] (setting [6]) and in series [3] (setting [7]) was 50 to 100% each time. Also, the YFM entry in series [2] was “A (80–100)”.
For `O=C(Nc1ccc(F)c(NC(=O)C(Br)CC(F)(F)F)c1F)c1cc(NC(=O)[C@H]2[C@H](c3ccc(F)c(C(F)(F)F)c3)C2(Cl)Cl)ccc1Cl` (stereo partly drawn) [F1831, N-(3-(2-Bromo-4,4,4-trifluorobutanamido)-2,4-difluorophenyl)-2-chloro-5-((1R,3R)-2,2-dichloro-3-(4-fluoro-3-(trifluoromethyl)phenyl)cyclopropane-1-carboxamido)benzamide], the pest or weed control at 50 µg/cm2 in series [1] (setting [4]) and in series [3] (setting [5]) was 50 to 100% throughout. The YFM rating entry in series [2] is “A (80–100)”.
On to `CCCNC(=O)c1c(Cl)ccc(NC(=O)[C@H]2[C@H](c3ccc(F)c(Cl)c3)C2(Cl)Cl)c1Cl` (relative stereo) [F2022, trans-2,6-Dichloro-3-(2,2-dichloro-3-(3-chloro-4-fluorophenyl)cyclopropane-1-carboxamido)-N-propylbenzamide], for which the pest or weed control at 50 µg/cm2 in series [1] (setting [4]) and in series [3] (setting [5]) was 50 to 100% throughout. For the same compound, the YFM rating entry in series [2] is “A (80–100)”.
In the case of `O=C(Nc1ccc(F)c(NC(=O)C(F)(F)F)c1F)c1cc(NC(=O)[C@H]2[C@H](c3ccc(Cl)c(Cl)c3)C2(Cl)Cl)ccc1Cl` [F1064, 2-Chloro-5-((1R,3R)-2,2-dichloro-3-(3,4-dichlorophenyl)cyclopropane-1-carboxamido)-N-(2,4-difluoro-3-(2,2,2-trifluoroacetamido)phenyl)benzamide], the pest or weed control at 50 µg/cm2 in series [1] (setting [6]) and in series [3] (setting [7]) was 50 to 100% each time. For the same compound, the YFM entry in series [2] was “A (80–100)”.
As for `CC(C)(C)OC(=O)Nc1c(F)ccc(NC(=O)c2cc(NC(=O)[C@H]3[C@H](c4ccc(Cl)c(C(F)(F)F)c4)C3(Cl)Cl)ccc2Cl)c1F` (relative stereo) [F1077, trans-tert-Butyl-(3-(2-chloro-5-(2,2-dichloro-3-(4-chloro-3-(trifluoromethyl)phenyl)cyclopropane-1-carboxamido)benzamido)-2,6-difluorophenyl)carbamate], the pest or weed control at 50 µg/cm2 in series [1] (setting [6]) and in series [3] (setting [7]) was 50 to 100% each time. In series [2], the YFM result is on record as “A (80–100)”.
Turning to `O=C(NNC(=O)c1cc(NC(=O)[C@H]2[C@H](c3cc(Cl)cc(Cl)c3)C2(Cl)Cl)ccc1Cl)OC(F)(F)F` (relative stereo) [F2543, trans-Trifluoromethyl 2-(2-chloro-5-(2,2-dichloro-3-(3,5-dichlorophenyl)cyclopropane-1-carboxamido)benzoyl)hydrazine-1-carboxylate], the pest or weed control at 50 µg/cm2 in series [1] (setting [4]) and in series [3] (setting [5]) was 50 to 100% in each case. The YFM rating entry in series [2] is given as “A (80–100)”.
Take `Cc1c(F)cc(NC(=O)[C@H]2[C@H](c3ccc(F)c(Cl)c3)C2(Cl)Cl)cc1C(=O)NCC(F)(F)C(F)(F)F` (relative stereo) [F2064, trans-5-(2,2-Dichloro-3-(3-chloro-4-fluorophenyl)cyclopropane-1-carboxamido)-3-fluoro-2-methyl-N-(2,2,3,3,3-pentafluoropropyl)benzamide]: the pest or weed control at 50 µg/cm2 in series [1] (setting [4]) and in series [3] (setting [5]) was 50 to 100% each time. For the same compound, the YFM rating entry in series [2] was “A (80–100)”.
On to `CC(=O)NCCCCCNC(=O)c1cc(NC(=O)[C@H]2[C@H](c3cc(Cl)cc(Cl)c3)C2(Cl)Cl)ccc1Cl` (relative stereo) [F2069, trans-N-(5-Acetamidopentyl)-2-chloro-5-(2,2-dichloro-3-(3,5-dichlorophenyl)cyclopropane-1-carboxamido)benzamide], for which the pest or weed control at 50 µg/cm2 in series [1] (setting [4]) and in series [3] (setting [5]) was 50 to 100% in each case. Further, the YFM rating entry in series [2] is reported as “A (80–100)”.
For `COc1c(F)cc(NC(=O)[C@H]2[C@H](c3ccc(F)c(Cl)c3)C2(Cl)Cl)cc1C(=O)NCCC(F)(F)F` (relative stereo) [F2059, trans-5-(2,2-Dichloro-3-(3-chloro-4-fluorophenyl)cyclopropane-1-carboxamido)-3-fluoro-2-methoxy-N-(3,3,3-trifluoropropyl)benzamide], the pest or weed control at 50 µg/cm2 in series [1] (setting [4]) and in series [3] (setting [5]) was 50 to 100% throughout. Further, in series [2], the YFM rating result was “A (80–100)”.
Take `O=C(Nc1c(F)ccc(NC(=O)c2cc(NC(=O)[C@H]3[C@H](c4ccc(Cl)c(Cl)c4)C3(Cl)Cl)ccc2Cl)c1F)c1ccccc1` [F1253, N-(3-Benzamido-2,4-difluorophenyl)-2-chloro-5-((1R,3R)-2,2-dichloro-3-(3,4-dichlorophenyl)cyclopropane-1-carboxamido)benzamide]: the pest or weed control at 50 µg/cm2 in series [1] (setting [6]) and in series [3] (setting [7]) was 50 to 100% in each case. Moreover, the YFM result in series [2] is recorded as “A (80–100)”.
For the compound `CC(C)(C)OC(=O)N(C(=O)OC(C)(C)C)c1c(F)ccc(NC(=O)c2cc(NC(=O)[C@H]3[C@H](c4ccc(Cl)c(Cl)c4)C3(Cl)Cl)ccc2Cl)c1F` [DP7, tert-Butyl-N-((tert-butoxy)carbonyl)-N-(3-(2-chloro-5-((1R,3R)-2,2-dichloro-3-(3,4-dichlorophenyl)cyclopropane-1-carboxamido)benzamido)-2,6-difluorophenyl)carbamate], the mortality at 50 µg/cm2 in series [1] lay in the range of 50 to 100%; in series [3], 0 to 50%. In addition, the results for the pest or weed control at 50 µg/cm2 in series [1] (setting [4]) and in series [3] (setting [5]) were 50 to 100% and 0 to 50%, respectively. The “YFM % Control (or Mortality) rating” value in series [2] is recorded as “D (No activity noticed in this bioassay)”.
